# Results: patent US20020111274A1, “1-alkyl-3-[1-(substituted phenyl) benzotriazol-6-yl] uracils” (BASF Aktiengesellschaft, priority 2000, published 2002)
# Experiments:
# Design in all cases: scale not given here
# [1] = system: ZEAMX Corn, Field; assay: Preemergence herbicidal evaluation, ZEAMX; type: in vivo, Zea mays, L. (Sammel-Bezeichnung); details: preemergence
# How it was run: (§1)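 Preemergence soil spray: aqueous acetone, ~0.013–0.800 kg/ha, applied right after sowing (seed/potting-soil mix over ~1 in soil). Greenhouse, routine watering. Scored 4–5 wk post-treatment on a rating scale.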
# [2] = system: TRZAWR Wheat, Winter, cv Riband; assay: Postemergence herbicidal evaluation, TRZAWR; type: in vivo, Triticum aestivum; details: postemergence spray, rated about two-three weeks after treatment
# How it was run: (§2)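 Seedlings grown about two weeks were sprayed with compound in 80/20 acetone/water containing 1.0% methylated seed oil, at the equivalent of about 0.006 to 0.400 kg/ha, through a nozzle at 40 psi. Plants were kept in the greenhouse and rated visually about two to three weeks after treatment.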
# [3] = system: CHEAL Lambsquarters, Common; assay: Postemergence herbicidal evaluation, CHEAL; type: in vivo, Chenopodium album, L.; details: postemergence spray, rated about two-three weeks after treatment
# How it was run: as §2
# [4] = system: ABUTH Velvetleaf; assay: Postemergence herbicidal evaluation, ABUTH; type: in vivo, Abutilon theophrasti, Medic.; details: postemergence spray, rated about two-three weeks after treatment
# How it was run: as §2
# [5] = system: IPOHE Morningglory, Ivyleaf; assay: Postemergence herbicidal evaluation, IPOHE; type: in vivo, Ipomoea hederacea, (L.) Jacq.; details: postemergence spray, rated about two-three weeks after treatment
# How it was run: as §2
# [6] = system: CASOB Sicklepod; assay: Preemergence herbicidal evaluation, CASOB; type: in vivo, Cassia obtusifolia, L.; details: preemergence
# How it was run: as §1
# [7] = system: ABUTH Velvetleaf; assay: Preemergence herbicidal evaluation, ABUTH; type: in vivo, Abutilon theophrasti, Medic.; details: preemergence
# How it was run: as §1
# [8] = system: ORYSAT Rice, Tebonnet; assay: Preemergence herbicidal evaluation, ORYSAT; type: in vivo, Oryza sativa, (L.); details: preemergence
# How it was run: as §1
# [9] = system: GALAP Galium; assay: Postemergence herbicidal evaluation, GALAP; type: in vivo, Galium aparine; details: postemergence spray, rated about two-three weeks after treatment
# How it was run: as §2
# [10] = system: TRZAWR Wheat, Winter, cv Riband; assay: Preemergence herbicidal evaluation, TRZAWR; type: in vivo, Triticum aestivum; details: preemergence
# How it was run: as §1
# [11] = system: SETVI Foxtail, Green; assay: Postemergence herbicidal evaluation, SETVI; type: in vivo, Setaria viridis, (L.) Beau; details: postemergence spray, rated about two-three weeks after treatment
# How it was run: as §2
# [12] = system: CASOB Sicklepod; assay: Postemergence herbicidal evaluation, CASOB; type: in vivo, Cassia obtusifolia, L.; details: postemergence spray, rated about two-three weeks after treatment
# How it was run: as §2
# [13] = system: GLXMAW Soybean, Williams; assay: Postemergence herbicidal evaluation, GLXMAW; type: in vivo, Glycine max, (L.) Merr. cv Williams; details: postemergence spray, rated about two-three weeks after treatment
# How it was run: as §2
# [14] = system: GALAP Galium; assay: Preemergence herbicidal evaluation, GALAP; type: in vivo, Galium aparine; details: preemergence
# How it was run: as §1
# [15] = system: ZEAMX Corn, Field; assay: Postemergence herbicidal evaluation, ZEAMX; type: in vivo, Zea mays, L. (Sammel-Bezeichnung); details: postemergence spray, rated about two-three weeks after treatment
# How it was run: as §2
# [16] = system: CHEAL Lambsquarters, Common; assay: Preemergence herbicidal evaluation, CHEAL; type: in vivo, Chenopodium album, L.; details: preemergence
# How it was run: as §1
# [17] = system: ECHOG Barnyardgrass; assay: Postemergence herbicidal evaluation, ECHOG; type: in vivo, Echinochloa crus-galli, (L.) Beau; details: postemergence spray, rated about two-three weeks after treatment
# How it was run: as §2
# [18] = system: ORYSAT Rice, Tebonnet; assay: Postemergence herbicidal evaluation, ORYSAT; type: in vivo, Oryza sativa, (L.); details: postemergence spray, rated about two-three weeks after treatment
# How it was run: as §2
# [19] = system: AMBEL Ragweed, Common; assay: Preemergence herbicidal evaluation, AMBEL; type: in vivo, Ambrosia artemisifolia, L.; details: preemergence
# How it was run: as §1
# [20] = system: AMBEL Ragweed, Common; assay: Postemergence herbicidal evaluation, AMBEL; type: in vivo, Ambrosia artemisifolia, L.; details: postemergence spray, rated about two-three weeks after treatment
# How it was run: as §2
# [21] = system: IPOHE Morningglory, Ivyleaf; assay: Preemergence herbicidal evaluation, IPOHE; type: in vivo, Ipomoea hederacea, (L.) Jacq.; details: preemergence
# How it was run: as §1
# [22] = system: ECHOG Barnyardgrass; assay: Preemergence herbicidal evaluation, ECHOG; type: in vivo, Echinochloa crus-galli, (L.) Beau; details: preemergence
# How it was run: as §1
# [23] = system: SETVI Foxtail, Green; assay: Preemergence herbicidal evaluation, SETVI; type: in vivo, Setaria viridis, (L.) Beau; details: preemergence
# How it was run: as §1
# [24] = system: GLXMAW Soybean, Williams; assay: Preemergence herbicidal evaluation, GLXMAW; type: in vivo, Glycine max, (L.) Merr. cv Williams; details: preemergence
# How it was run: as §1
smiles,measurement,setting,value
COc1ccc(Cl)cc1-n1nnc2cc(F)c(-n3c(=O)cc(C(F)(F)F)n(C)c3=O)cc21 [Example 30],ZEAMX herbicidal rating,[1]; rate 0.016 kg/ha,1.0
same,ZEAMX herbicidal rating,[1]; rate 0.032 kg/ha,3.0
same,ZEAMX herbicidal rating,[1]; rate 0.062 kg/ha,5.0
same,ZEAMX herbicidal rating,[1]; rate 0.125 kg/ha,7.0
same,Postemergence herbicidal rating TRZAWR,[2]; 0.008 kg/ha,3.5
same,Postemergence herbicidal rating TRZAWR,[2]; 0.016 kg/ha,3.5
same,Postemergence herbicidal rating TRZAWR,[2]; 0.032 kg/ha,4.0
same,Postemergence herbicidal rating TRZAWR,[2]; 0.062 kg/ha,4.5
same,Postemergence herbicidal rating CHEAL,[3]; 0.008 kg/ha,9.0
same,Postemergence herbicidal rating CHEAL,[3]; 0.016 kg/ha,9.0
same,Postemergence herbicidal rating CHEAL,[3]; 0.032 kg/ha,9.0
same,Postemergence herbicidal rating CHEAL,[3]; 0.062 kg/ha,9.0
same,Postemergence herbicidal rating ABUTH,[4]; 0.008 kg/ha,9.0
same,Postemergence herbicidal rating ABUTH,[4]; 0.016 kg/ha,9.0
same,Postemergence herbicidal rating ABUTH,[4]; 0.032 kg/ha,9.0
same,Postemergence herbicidal rating ABUTH,[4]; 0.062 kg/ha,9.0
same,Postemergence herbicidal rating IPOHE,[5]; 0.008 kg/ha,9.0
same,Postemergence herbicidal rating IPOHE,[5]; 0.016 kg/ha,9.0
same,Postemergence herbicidal rating IPOHE,[5]; 0.032 kg/ha,9.0
same,Postemergence herbicidal rating IPOHE,[5]; 0.062 kg/ha,9.0
same,CASOB herbicidal rating,[6]; rate 0.016 kg/ha,0.0
same,CASOB herbicidal rating,[6]; rate 0.032 kg/ha,1.0
same,CASOB herbicidal rating,[6]; rate 0.062 kg/ha,0.0
same,CASOB herbicidal rating,[6]; rate 0.125 kg/ha,2.0
same,ABUTH herbicidal rating,[7]; rate 0.016 kg/ha,0.0
same,ABUTH herbicidal rating,[7]; rate 0.125 kg/ha,6.0
same,ORYSAT herbicidal rating,[8]; rate 0.016 kg/ha,0.0
same,ORYSAT herbicidal rating,[8]; rate 0.032 kg/ha,1.0
same,ORYSAT herbicidal rating,[8]; rate 0.062 kg/ha,2.0
same,ORYSAT herbicidal rating,[8]; rate 0.125 kg/ha,4.0
same,Postemergence herbicidal rating GALAP,[9]; 0.008 kg/ha,1.0
same,Postemergence herbicidal rating GALAP,[9]; 0.016 kg/ha,3.0
same,Postemergence herbicidal rating GALAP,[9]; 0.032 kg/ha,4.0
same,Postemergence herbicidal rating GALAP,[9]; 0.062 kg/ha,4.0
same,TRZAWR herbicidal rating,[10]; rate 0.016 kg/ha,0.0
same,TRZAWR herbicidal rating,[10]; rate 0.032 kg/ha,1.0
same,TRZAWR herbicidal rating,[10]; rate 0.062 kg/ha,2.0
same,TRZAWR herbicidal rating,[10]; rate 0.125 kg/ha,2.0
same,Postemergence herbicidal rating SETVI,[11]; 0.008 kg/ha,7.0
same,Postemergence herbicidal rating SETVI,[11]; 0.016 kg/ha,6.0
same,Postemergence herbicidal rating SETVI,[11]; 0.032 kg/ha,9.0
same,Postemergence herbicidal rating SETVI,[11]; 0.062 kg/ha,9.0
same,Postemergence herbicidal rating CASOB,[12]; 0.008 kg/ha,3.0
same,Postemergence herbicidal rating CASOB,[12]; 0.016 kg/ha,4.0
same,Postemergence herbicidal rating CASOB,[12]; 0.032 kg/ha,7.0
same,Postemergence herbicidal rating CASOB,[12]; 0.062 kg/ha,8.0
same,Postemergence herbicidal rating GLXMAW,[13]; 0.008 kg/ha,6.5
same,Postemergence herbicidal rating GLXMAW,[13]; 0.016 kg/ha,6.5
same,Postemergence herbicidal rating GLXMAW,[13]; 0.032 kg/ha,8.0
same,Postemergence herbicidal rating GLXMAW,[13]; 0.062 kg/ha,8.0
same,GALAP herbicidal rating,[14]; rate 0.016 kg/ha,2.0
same,GALAP herbicidal rating,[14]; rate 0.032 kg/ha,2.0
same,GALAP herbicidal rating,[14]; rate 0.062 kg/ha,3.0
same,GALAP herbicidal rating,[14]; rate 0.125 kg/ha,4.0
same,Postemergence herbicidal rating ZEAMX,[15]; 0.008 kg/ha,4.5
same,Postemergence herbicidal rating ZEAMX,[15]; 0.016 kg/ha,4.5
same,Postemergence herbicidal rating ZEAMX,[15]; 0.032 kg/ha,5.0
same,Postemergence herbicidal rating ZEAMX,[15]; 0.062 kg/ha,5.0
same,CHEAL herbicidal rating,[16]; rate 0.016 kg/ha,9.0
same,CHEAL herbicidal rating,[16]; rate 0.032 kg/ha,9.0
same,CHEAL herbicidal rating,[16]; rate 0.062 kg/ha,9.0
same,CHEAL herbicidal rating,[16]; rate 0.125 kg/ha,9.0
same,Postemergence herbicidal rating ECHCG,[17]; 0.008 kg/ha,2.0
same,Postemergence herbicidal rating ECHCG,[17]; 0.016 kg/ha,4.0
same,Postemergence herbicidal rating ECHCG,[17]; 0.032 kg/ha,4.0
same,Postemergence herbicidal rating ECHCG,[17]; 0.062 kg/ha,6.0
same,Postemergence herbicidal rating ORYSAT,[18]; 0.008 kg/ha,3.5
same,Postemergence herbicidal rating ORYSAT,[18]; 0.016 kg/ha,3.5
same,Postemergence herbicidal rating ORYSAT,[18]; 0.032 kg/ha,4.0
same,Postemergence herbicidal rating ORYSAT,[18]; 0.062 kg/ha,4.5
same,AMBEL herbicidal rating,[19]; rate 0.016 kg/ha,0.0
same,AMBEL herbicidal rating,[19]; rate 0.032 kg/ha,0.0
same,AMBEL herbicidal rating,[19]; rate 0.062 kg/ha,3.0
same,AMBEL herbicidal rating,[19]; rate 0.125 kg/ha,6.0
same,Postemergence herbicidal rating AMBEL,[20]; 0.008 kg/ha,9.0
same,Postemergence herbicidal rating AMBEL,[20]; 0.016 kg/ha,9.0
same,Postemergence herbicidal rating AMBEL,[20]; 0.032 kg/ha,9.0
same,Postemergence herbicidal rating AMBEL,[20]; 0.062 kg/ha,9.0
same,IPOHE herbicidal rating,[21]; rate 0.016 kg/ha,0.0
same,IPOHE herbicidal rating,[21]; rate 0.032 kg/ha,0.0
same,IPOHE herbicidal rating,[21]; rate 0.062 kg/ha,4.0
same,IPOHE herbicidal rating,[21]; rate 0.125 kg/ha,3.0
same,ECHCG herbicidal rating,[22]; rate 0.016 kg/ha,1.0
same,ECHCG herbicidal rating,[22]; rate 0.032 kg/ha,5.0
same,ECHCG herbicidal rating,[22]; rate 0.062 kg/ha,7.0
same,ECHCG herbicidal rating,[22]; rate 0.125 kg/ha,7.0
same,SETVI herbicidal rating,[23]; rate 0.016 kg/ha,4.0
same,SETVI herbicidal rating,[23]; rate 0.032 kg/ha,7.0
same,SETVI herbicidal rating,[23]; rate 0.062 kg/ha,9.0
same,SETVI herbicidal rating,[23]; rate 0.125 kg/ha,9.0
same,GLXMAW herbicidal rating,[24]; rate 0.016 kg/ha,1.0
same,GLXMAW herbicidal rating,[24]; rate 0.032 kg/ha,1.0
same,GLXMAW herbicidal rating,[24]; rate 0.062 kg/ha,1.0
same,GLXMAW herbicidal rating,[24]; rate 0.125 kg/ha,2.0
